Results: patent US7083933B1, “Methods for identification of modulators of OSGPR116 activity” (Prosidion Limited, priority 2003, dated 2006)

Columns and labels:
OSGPR116 [1] = target: T1, OSGPR116 (Homo sapiens, UniProt Q8TDV5); experiment: Yeast cell-based Fus1p-LacZ reporter assay, human OSGPR116; design: expressed in transfected cells; host or cells: engineered yeast (GPA1 and Ste3 deleted, G-alpha chimera, Fus1p-LacZ reporters); conditions: human isoform, FIG. 9a; Galpha-q5 yeast, 4h incubation
T1 sequence (Q8TDV5 1-335): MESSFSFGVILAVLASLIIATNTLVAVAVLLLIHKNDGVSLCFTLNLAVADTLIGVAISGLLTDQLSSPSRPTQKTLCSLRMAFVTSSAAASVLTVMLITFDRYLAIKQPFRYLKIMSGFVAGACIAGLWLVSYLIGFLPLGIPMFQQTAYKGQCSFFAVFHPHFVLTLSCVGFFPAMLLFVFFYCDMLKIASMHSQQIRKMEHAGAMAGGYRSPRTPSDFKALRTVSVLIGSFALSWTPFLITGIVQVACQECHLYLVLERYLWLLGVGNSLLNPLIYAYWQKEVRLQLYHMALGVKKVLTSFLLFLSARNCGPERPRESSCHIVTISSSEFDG
Excerpt: (§1) The yeast cell-based reporter assays have previously been described in the literature (e.g. see Miret J. J., et. al. (2002) J. Biol. Chem. 277:6881–6887; Campbell R. M., et. al. (1999) Bioorg Med. Chem. Lett. 9:2413–2418; King K., et. al. (1990) Science. 250:121–123); WO 99/14344; WO 00/12704; and U.S. Pat. No. 6,100,042). Briefly, yeast cells have been engineered such that the endogenous yeast G-alpha (GPA1) has been deleted and replaced with G-protein chimeras constructed using multiple techniques. Additionally the endogenous yeast alpha-cell GPCR, Ste3 has been deleted to allow for a […] expression of a mammalian GPCR of choice. In the yeast, elements of the pheromone signaling transduction pathway, which are conserved in eukaryotic cells (for example, the mitogen-activated protein kinase pathway), drive the expression of Fus1. By placing β-galactosidase (LacZ) under the control of the Fus1 promoter (Fus1p), a system has been developed whereby receptor activation leads to an enzymatic read-out. Different yeast strains (e.g. FIG. 10) denote the presence of different G-alpha chimeras (see “yeast reporter assays” in Results section below for definitions).
(§2) Yeast cells are transformed by an adaptation of the Lithium acetate method described by Agatep et.al. (Agatep, R., et. al. (1998) Transformation of Saccharomyces cerevisiae by the lithium acetate/single-stranded carrier DNA/polyethylene glycol (LiAc/ss-DNA/PEG) protocol. Technical Tips Online, Trends Journals, Elsevier). Briefly, yeast cells are grown overnight on yeast tryptone plates (YT). Carrier single-stranded DNA (10 μg), 2 μg of each of two Fus1p-LacZ reporter plasmids (one with URA selection marker and one with TRP), 2 μg of OSGPR116 in yeast expression vector (2μ origin of replication) and a lithium acetate/polyethylene glycol/TE buffer is pipetted into an Epindorf tube. The yeast expression plasmid containing the receptor/no receptor control has a LEU marker. Yeast cells are inoculated into this mixture and the reaction proceeds at 30° C. for 60 minutes. The yeast cells are then heat-shocked at 42° C. for 15 minutes. The cells are then washed and spread on selection plates. The selection plates are synthetic defined yeast media minus LEU, URA and TRP (SD-LUT). After incubating at 30° C. for 2–3 days, colonies that grow on the selection plates are then tested in the LacZ assay.
(§3) In order to perform fluorometric enzyme assays for β-galactosidase, yeast cells were grown overnight in liquid SD-LUT media to an unsaturated concentration (i.e. the cells are still dividing and have not yet reached stationary phase). They are diluted in fresh media to an optimal assay concentration and 90 μL of yeast cells were added to 96-well black polystyrene plates (Costar). Compounds, dissolved in ethanol and diluted in a 1% BSA solution to 10× concentration, were added to the plates and the yeast are placed at 30° C. for 4h. After 4h, the substrate for the β-galactosidase is added to each well. The substrate may yield a fluorescent or calorimetric read-out upon the activity of the β-galactosidase. In these experiments, Fluorescein di (β-D-galactopyranoside) was used (FDG), a substrate for the enzyme that releases fluorescein, allowing a fluorometric read-out. 20 μL of 500 uM FDG was used. After incubation of the cells with the substrate for 30–60 mins, 20 μL of 1M sodium carbonate is added to terminate the reaction and enhance the fluorescent signal. The plates were then read in a fluorometer at 485/535 nm. As an alternate read-out system, the yeast are also engineered with a Fus1p-HIS gene which means that activation of the receptor can also be measured through the growth of the yeast in a […] deficient media.

[2] = tested on: vector transformed yeast cells; experiment: Yeast reporter assay, vector transformed (no receptor) control yeast; type: cell-based; conditions: yeast without OSGPR116 expression, FIGS. 9a, 9b
Excerpt: as §1, §2, §3

[3] = target: T2, mouse homolog of OSGPR116 (Mus musculus, UniProt Q7TQP3); experiment: Yeast cell-based Fus1p-LacZ reporter assay, mouse OSGPR116; conditions: mouse isoform, FIG. 9b; Galpha-q5 yeast, 4h incubation
T2 construct: expressed in transfected cells; host or cells: engineered yeast (GPA1 and Ste3 deleted, G-alpha chimera, Fus1p-LacZ reporters)
T2 sequence (Q7TQP3 1-335): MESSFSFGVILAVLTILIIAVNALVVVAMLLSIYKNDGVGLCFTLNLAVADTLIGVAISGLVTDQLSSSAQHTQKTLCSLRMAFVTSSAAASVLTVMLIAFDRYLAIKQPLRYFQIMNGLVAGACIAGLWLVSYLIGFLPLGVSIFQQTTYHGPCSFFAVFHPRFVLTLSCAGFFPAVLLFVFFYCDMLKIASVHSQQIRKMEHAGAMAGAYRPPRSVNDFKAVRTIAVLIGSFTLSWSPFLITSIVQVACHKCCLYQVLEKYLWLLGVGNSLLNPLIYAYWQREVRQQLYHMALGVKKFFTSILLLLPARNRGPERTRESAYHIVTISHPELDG
Excerpt: as §1, §2, §3

OSGPR116 [4] = target: T1, OSGPR116; experiment: Cre-SEAP assay in HEK-293-Galpha16 cells transfected with OSGPR116 or empty vector; type: cell-based; design: expressed in transfected cells; host or cells: HEK-293-Galpha16 cells stably expressing cre-SEAP, transient transfection with lipofectamine; conditions: OSGPR116 and empty vector transfected cells, 7h, FIG. 12
Method: HEK-293—Galpha16 cells stably expressing the cre-SEAP (secreted alkaline phosphatase) reporter construct, and transiently transfected with either the OSGPR116 vector or empty vector control, were grown to between ˜0.5×10^6 and 1×10^7 cells/dish and seeded at 4×10^4 cells/well on poly-D-lysine coated clear-bottom 96-well tissue culture plates. The cells were left to adhere to the plates in media for 24h at 37° C. The media was aspirated and the cells arrested by serum starvation for a further 24h in 200 ul of colorless DMEM.
After serum arrest, the starvation media was aspirated and 90 ul fresh colorless DMEM containing 0.1% BSA was added. 10 ul of 10× compound (or DMSO/H20 control) was added and the plates incubated at 37° C. for 7h. Conditioned media (12.5 ul) was then transferred to a 96 well white flat-bottom plate. Next, 37.5 μl of 1× Tropix Dilution Buffer was added to the transferred culture media. 50 μl of Tropix Assay Buffer was also added. The plate was then incubated at room temperature for 5 minutes. Finally, 50 μl Tropix Reaction Buffer Diluent containing a 1:20 dilution of the CSPD Chemiluminescent Substrate was added. The plate was incubated at room temperature for 60 minutes and luminescence measured.

OSGPR116 [5] = target: T1, OSGPR116; design: expressed in transfected cells; host or cells: yeast strains 13397, 13393, 15070, 18043, 20202, 10151 with different G-alpha chimeras; conditions: as described in earlier U.S. patents; cited from earlier work

| SMILES | effect on fluorescence (β-galactosidase activity) in yeast transformed with OSGPR116 receptor (OSGPR116 [1]) | increase in fluorescence in vector transformed cells [2] | effect on fluorescence (β-galactosidase activity) in yeast transformed with OSGPR116 receptor [3] | other results |
| --- | --- | --- | --- | --- |
| CCCCCCCCCCCCCCCC(=O)NCCO [palmitoyl ethanolamide] | increase in fluorescence | not | increase in fluorescence |  |
| CCCC(C)(C)c1ccc2c(c1)OC(C)(C)[C@@H]1CC=C(C)C[C@@H]21 [JWH-133] | no effect |  |  |  |
| CC1=C(/C=C/C(C)=C/C=C/C(C)=C/C(=O)O)C(C)(C)CCC1 [ATRA, all-trans-retinoic acid] | no effect |  |  | luminescence (cre-SEAP, cAMP response element driven secreted alkaline phosphatase) (OSGPR116 [4]): no effect; luminescence (cre-SEAP, cAMP response element driven secreted alkaline phosphatase) (OSGPR116 [4]; listed as all-trans retinoic acid (ATRA)): Lack of effect; production of cyclic AMP in host cells expressing recombinant receptor (OSGPR116 [5]): stimulate the production of cyclic AMP |
| CCCCCCCCCCCCCCCCCC(=O)NCCO [stearoyl ethanolamide] | increase in fluorescence | not | increase in fluorescence |  |
| CC/C=C\C/C=C\C/C=C\C/C=C\C/C=C\C/C=C\CCC(=O)NCCO [docosahexaenoic acid ethanolamide] | no effect |  |  |  |
| CC/C=C\C/C=C\C/C=C\CCCCCCCC(=O)NCCO [linolenoyl ethanolamide] | increase in fluorescence | not | increase in fluorescence |  |
| CCCCCCC(C)(C)c1ccc([C@@H]2C[C@H](O)CC[C@H]2CCCO)c(O)c1 [CP55940] | no effect |  |  |  |
| CCCCC/C=C\C/C=C\C/C=C\C/C=C\CCCC(=O)NCCO [anandamide] | increase in fluorescence | not | increase in fluorescence |  |
| Cc1c(C(=O)c2cccc3ccccc23)c2cccc3c2n1[C@H](CN1CCOCC1)CO3 [WIN55212-2] | no effect |  |  |  |
| Nc1ncnc2c1ncn2[C@@H]1O[C@H](COP(=O)(O)OP(=O)(O)OP(=O)(O)O)[C@@H](O)[C@H]1O [ATP] |  |  |  | luminescence (cre-SEAP, cAMP response element driven secreted alkaline phosphatase) (OSGPR116 [4]): no effect |
| CCCCC/C=C\C/C=C\C/C=C\C/C=C\CCCC(=O)N[C@H](C)CO [methanandamide] | no effect |  |  |  |
| CCCCCCCC/C=C\CCCCCCCC(N)=O [oleamide] | increase in fluorescence | not | increase in fluorescence |  |
| CCNC(=O)[C@H]1O[C@@H](n2cnc3c(N)ncnc32)[C@H](O)[C@@H]1O [NECA] |  |  |  | luminescence (cre-SEAP, cAMP response element driven secreted alkaline phosphatase) (OSGPR116 [4]): clear increase |
